In one test the test system is Corynebacteria. Kind of test: MIC, broth dilution (Examples I/II). The format is cell-based, Corynebacterium sp. (10700). To be noted: Table 7, Cornebacteria. How it is done:
(§1) In order to establish comparative bactericidal and fungicidal results with homologous fatty acids, a series of experiments was performed with thirty straight-chain fatty acids and derivatives thereof. Eight different gram-negative and twelve different gram-positive organisms, representing a very broad spectrum of organisms, were used in these experiments including the fungus Candida (a yeast). Additionally, fatty acids were chosen to show the effects of saturation versus unsaturation, in the fatty acid claim. Standard solutions of the fatty acids and their derivatives were prepared by first dissolving the weighed compounds in 1 to 2 ml of 95% ethanol and immediately pouring this solution into 200 ml of Tripticase Soy Broth. These lipid compounds which are insoluble in water and broth precipitated into very small crystals or droplets. The tubes containing the suspension were warmed to approximately 70° C and were then placed in an ultrasonic tank for further solubilization of the lipid derivatives.
(§2) Standard solutions (or suspensions) at 1,000 μg/ml were twofold serially diluted with additional broth to a concentration of 125 μg/ml. A 4-ml amount of each dilution was then quickly, and with constant agitation, dispensed into appropriately labeled screw-capped glass tubes (16 by 125 mm). The tubes were sterilized with steam at 15 psi for 15 minutes. After sterilization, all tubes were cooled and incubated overnight at 35° C to insure sterility.
(§3) All compounds were compared on a molar (micromoles/milliliter) rather than on a mass basis. In the following lists of organisms used, those followed by a parenthetical number are registered with the American Type Culture Collection (ATCC); the remainder were isolates from Providence Hospital or Northland Laboratory.
(§4) One drop (0.04 ± 0.01 ml) of an 18-hr broth culture containing 10^7 and 10^9 organisms/ml was added to each dilution of the test compound, as well as to a tube of plain broth which served as the positive control. After inoculation, the contents of each tube were well mixed, and the tubes were incubated at 35° C in a 5% carbon dioxide + […] atmosphere.
(§5) The MIC is defined as the lowest concentration of compound at which no […] evidence of growth was observed when turbidity of the inoculated broth dilutions was compared with control tubes. […] Only a one-tube difference between the bactericidal and bacteriostatic concentrations was normally observed.
(§6) Standard solutions (1000 μg/ml) of three fatty acids and polyglycerol esters thereof were prepared as described in Example I. Also sucrose esters were prepared by transferring the weighed compounds (0.2 gm. dissolved in 1 ml absolute methanol) into 200 ml of sterile Trypticase Soy Broth (TSB). These standard solutions (1000 μg/ml) were twofold serially diluted with additional sterile broth to a concentration of 125 μg/ml. A 3.8 aliquot of each dilution was asceptically delivered into sterile screw-capped culture tubes. All tubes were incubated overnight at 36° C to insure sterility. The microorganisms used in this example were the same as those used in Example I.
(§7) The inoculum, 0.05 ml of an 13-24 hour TSB culture (approximately 10^9 organisms/ml) was asceptically delivered into all dilutions of the compounds, mixed well, and incubated at 36° C. A tube of inoculated broth without the compound served as a positive control and an uninoculated set of dilutions incubated along with the test dilutions, served as a negative control.
(§8) In those cases in which the test compound itself caused turbidity, an aliquot (0.015 ml) of the mixed broth was inoculated onto an agar plate and incubated at 36° C for examination, as described in Example I. The control procedure of Example I was also repeated. The lauric, capric, and oleic acids were used as internal controls and for comparison to Example I. The minimal inhibitory concentrations (μmole/ml) for the compounds studied are given in Tables 7 and 8.

In another test the test system is Micrococci. Kind of test: MIC, broth dilution (Examples I/II). The class given is cell-based, Micrococcus sp. The note with it: Table 7, Micrococci. The method, then:
as §1, §2, §3, §4, §5, §6, §7, §8
On the technique in general: Dilution methods test growth across graded concentrations, often in twofold steps.

In another test the test system is Streptococcus Group D. Kind of test: MIC, broth dilution (Examples I/II). The format is cell-based. To be noted: Table 7, Strep. Grp. D; > = no inhibition, max. tested. The method, then:
as §1, §2, §3, §4, §5, §6, §7, §8

The next test relates to S. epidermidis. Kind of test: MIC, broth dilution (Examples I/II). The class given is cell-based. To be noted: Table 7, Staph epider.; > = no inhibition, max. tested. How it is done: as §1, §2, §3, §4, §5, §6, §7, §8
The next test has as its system Sarcina. Kind of test: MIC, broth dilution (Examples I/II). To be noted: Table 7, Sarcina; > = no inhibition, max. tested. The format is cell-based, Sarcina lutea (9431). How it is done:
as §1, §2, §3, §4, §5, §6, §7, §8

In test [1] the test system is Streptococcus β-hemolytic Non-A. Kind of test: MIC, broth dilution (Examples I/II). The class given is cell-based, beta-hemolytic streptococci non-group A. The note with it: Table 7, Strep. β-hemo. Non-A. How it is done:
as §1, §2, §3, §4, §5, §6, §7, §8

The next test deals with Streptococcus Group A. In words: MIC, broth dilution (Examples I/II). The format is cell-based, beta-hemolytic streptococci Group A. The note with it: Table 7, Strep. Grp. A. An outline of the steps: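 MIC values were determined in TSB tube dilutions, 1,000 down to 125 μg/ml, using sonicated lipid suspensions and ~10^9 organisms/ml inocula incubated at 35–36° C, partly under 5% CO2. Growth absence was judged by turbidity or agar subculture, with results converted to μmol/ml.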

For a further test, the system named is S. pyogenes. In words: Growth curve by optical density (Example IV, FIG. 3). The format is cell-based, streptococcus pyogenes. The note with it: 24 hours. The method, then:
To a series of containers is added 40 ml of Trypticase Soy Broth and 0.5 ml of streptococcus pyogenes (10^8 organisms/ml). To respective containers are added the following: (1) 10 μg of glycerol 1-mono-laurinand 10 μg of glycerol dilaurin; (2) 5 μg of glycerol 1-mono-laurin and 5 μg of glycerol dilaurin; (3) 10 μg of glycerol 1-mono-laurin; and (4) 5 μg of glycerol 1-mono-laurin; and (5) a control without any additives. The rate of growth of the S. pyogenes was followed for 24 hours at 6 hour intervals by reading the optical density of the cultures at […] in a spectrophotometer.

Test [2] deals with nine gram-positive organisms and the yeast/fungus Candida. In words: MIC, broth dilution, over all organisms (Examples I/II). The format is cell-based. How it is done:
as §1, §2, §3
Staphylococcus aureus, S. epidermidis, beta-hemolytic streptococci (Group A and non-group A), group D streptococcus, Bacillus subtilis (6051), Sarcina lutea (9431), Micrococcus sp., Candida albicans, Nocardia asteroids (3308), Corynebacterium sp. (10700), and pneumococcus (63001).
as §4, §5
Table 5 presents a comparison of the C10 and C12 free acids and their glyceryl derivatives, and Table 6 gives the corresponding ranges of activity.
as §6
The inoculum, 0.05 ml of an 13-24 hour TSB culture (approximately 10^9 organisms/ml) was asceptically delivered into all dilutions of the compounds, mixed well, and incubated at 36° C. […]

A further test has as its system Staphylococcus aureus. In words: MIC, agar dilution method (Example XVI). The note with it: Staphylococcus aureus. The format is cell-based. The source says: (§9) In a manner similar to that described in Example V, the effectiveness of certain food-grade microbecides are compared with mono-esters in an agar dilution method. The very favorable results may be noted from Table 19.
(In general: Agar dilution tests growth on a series of plates holding different concentrations.)

The subject of the next test is Escherichia coli. In words: MIC, agar dilution method (Example XVI). The format is cell-based. The note with it: Escherichia coli.
From the text: as §9

Another test relates to Canadida albicans. In words: MIC, agar dilution method (Example XVI). The format is cell-based.
From the text: as §9

In another test the test system is Pseudomonas aeruginosa. In words: MIC, agar dilution method (Example XVI). To be noted: Pseudomonas aeruginosa. The format is cell-based.
From the text: as §9

The test system of the next test is Bacillus subtilis. Kind of test: MIC, agar dilution method (Example XVI). The format is cell-based. The note with it: Bacillus subtilis.
From the text: as §9

Another test concerns Aspergillus niger. Kind of test: MIC, agar dilution method (Example XVI). The format is cell-based. The note with it: Aspergillus niger.
From the text: as §9

The next test relates to S. aureus. Kind of test: MIC, broth dilution (Examples I/II). The format is cell-based, Staphylococcus aureus. To be noted: Table 7, Staph aureus; > = no inhibition, max. tested. How it is done: as §1, §2, §3
One drop (0.04 ± 0.01 ml) of an 18-hr broth culture containing 10^7 and 10^9 organisms/ml was added to each dilution of the test compound, as well as to a tube of plain broth which served as the positive control. […]

The mark [3] stands for this setting: Table 19, agar dilution, read-out: MIC.

≈ marks a conversion by molar mass, not a printed value. Where two headings read alike, the source gives them in different places.

On to Hexaglycerol monolaurate, for which the minimum inhibitory concentration (MIC) with Corynebacteria is 380 µM; in the test on Micrococci, 380 µM; against Streptococcus Group D, greater than 1520 µM; in the test on S. epidermidis, greater than 1520 µM; against Sarcina, greater than 1520 µM; in test [1], 380 µM. For the same molecule, the minimum inhibitory concentration (MIC) with Streptococcus Group A stood at 190 µM.

For the molecule `CCCCCCCCCCCC(=O)OCC(O)CO` (stereo not shown) [1-mono-laurin], the “Antimicrobial activity in words (growth curve)” value in the test on S. pyogenes is reported as “responsible for all antimicrobial activity”. The “Activity relative to 2-mono-laurin” value in [2] is “as active as the 2-mono-laurin”. Also, the Activity in words result in test [2] (Table 6 footnote) was “Highly active on all organisms except streptococcus Group D”. Further, the MIC with Staphylococcus aureus is 39 µg/mL (≈ 0.142 mM); in the test with Escherichia coli, greater than 2500 µg/mL; against Canadida albicans it was greater than 2500 µg/mL; against Pseudomonas aeruginosa it was greater than 2500 µg/mL; against Bacillus subtilis, 39 µg/mL (≈ 0.142 mM); in the test with Aspergillus niger it was greater than 2500 µg/mL.

On to Hexaglycerol monocaprate, for which the minimal inhibitory concentration (MIC) in the test on Corynebacteria is 390 µM; in the test with Micrococci, 790 µM; with Streptococcus Group D, greater than 1580 µM; in the test on S. epidermidis, greater than 1580 µM; against Sarcina it was greater than 1580 µM; in test [1] it was 790 µM. The same molecule had an MIC in the test with Streptococcus Group A of 190 µM.

As to `C/C=C/C=C/C(=O)O` [Sorbic acid], the minimum inhibitory concentration (MIC) was found to be 1000 µg/mL (≈ 8.92 mM) with Staphylococcus aureus (setting [3]); 1000 µg/mL (≈ 8.92 mM) with Escherichia coli (setting [3]); 1000 µg/mL (≈ 8.92 mM) with Canadida albicans (setting [3]); 2000 µg/mL (≈ 17.8 mM) in the test on Pseudomonas aeruginosa (setting [3]); 1000 µg/mL (≈ 8.92 mM) with Bacillus subtilis (setting [3]); 1000 µg/mL (≈ 8.92 mM) in the test with Aspergillus niger (setting [3]).

For `Oc1ccccc1` [Phenol], the MIC in the test with Staphylococcus aureus is 1250 to 2500 µg/mL (≈ 13.3 to 26.6 mM); in the test on Escherichia coli, 2500 µg/mL (≈ 26.6 mM); with Canadida albicans it was 1250 to 2500 µg/mL (≈ 13.3 to 26.6 mM); with Pseudomonas aeruginosa it was 1250 µg/mL (≈ 13.3 mM); in the test on Bacillus subtilis, 1250 µg/mL (≈ 13.3 mM); in the test with Aspergillus niger, 1250 µg/mL (≈ 13.3 mM).

As to `COC(=O)c1ccc(O)cc1` [Methyl paraben], the minimum inhibitory concentration (MIC) in the test with Staphylococcus aureus (setting [3]) was determined as 5000 µg/mL (≈ 32.9 mM); in the test with Escherichia coli (setting [3]) it was 2500 µg/mL (≈ 16.4 mM); with Canadida albicans (setting [3]) it was 2500 µg/mL (≈ 16.4 mM); in the test on Pseudomonas aeruginosa (setting [3]), 5000 µg/mL (≈ 32.9 mM); in the test with Bacillus subtilis (setting [3]), 5000 µg/mL (≈ 32.9 mM); in the test with Aspergillus niger (setting [3]) it was 2500 µg/mL (≈ 16.4 mM).

For the molecule Triglycerol monocaprate, the MIC is greater than 2500 µM against S. aureus; 320 µM in the test with Corynebacteria; 1260 µM in the test on Micrococci; greater than 2500 µM against Streptococcus Group D; greater than 2500 µM against S. epidermidis; 2500 µM with Sarcina. Besides, the values for the MIC (in [1]; in the test with Streptococcus Group A) were 630 µM and 150 µM, respectively.

As usually defined, the MIC is the least concentration at which growth counts as inhibited.
